SMILES strings stand for the structures.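 1) Cells in 96-well plates. 2) Compound, 48 h, 5 concentrations. 3) Linear interpolation between surrounding doses. 4) Unreached endpoint = highest concentration. GI50: concentration for 50% inhibition of growth. TGI marks complete inhibition of growth.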 Some results are limits rather than exact numbers.

Among the test systems are SK-OV-3 ovarian; DU-145 prostate; HCT-15 colon; KM12 colon; OVCAR-5 ovarian; SF-539 CNS; UO-31 renal; A498 renal; OVCAR-3 ovarian; HCC-2998 colon.
Common to all, as to assay: DTP human tumour cell line panel, 48 h

As to `O=S(=O)(O)c1ccc2cc(N=Nc3cc(S(=O)(=O)O)c4cccnc4c3O)ccc2c1`, the TGI with SK-OV-3 ovarian, in the assay with DU-145 prostate, with HCT-15 colon, with KM12 colon, in the assay on OVCAR-5 ovarian and in the assay on SF-539 CNS was above 100 µM throughout. The TGI in the assay on UO-31 renal, in the assay with A498 renal and in the assay on OVCAR-3 ovarian was above 100 µM each time.
As for `O=C(O)C(Cc1ccc(O)c([N+](=O)[O-])c1)N1C(=O)c2ccccc2C1=O` (stereo unspecified), the TGI with SK-OV-3 ovarian, with DU-145 prostate, with HCT-15 colon, in the assay with KM12 colon, in the assay with OVCAR-5 ovarian and in the assay with SF-539 CNS was above 100 µM each time. Also, the TGI in the assay with UO-31 renal, with A498 renal and in the assay with OVCAR-3 ovarian was above 100 µM each time.
For `N#C/C(=C(\O)C(=O)O)c1ccc(-c2cccc3ccccc23)cc1`, the TGI in the assay with SK-OV-3 ovarian, in the assay with DU-145 prostate, in the assay on HCT-15 colon, with KM12 colon, in the assay on OVCAR-5 ovarian and in the assay on SF-539 CNS was above 100 µM throughout. Besides, the TGI with UO-31 renal, in the assay on A498 renal and with OVCAR-3 ovarian was above 100 µM throughout.
For the compound `Cc1c(C(=O)CC(=O)C(=O)NC2C3CC4CC(C3)CC2C4)[n+](=O)c2ccccc2n1[O-]` (stereo unspecified), the TGI with SK-OV-3 ovarian, with HCT-15 colon, in the assay with KM12 colon, in the assay with OVCAR-5 ovarian, with SF-539 CNS and in the assay on UO-31 renal was above 100 µM in each case. Further, the TGI (commonly the concentration at which net growth stops) was above 100 µM in the assay on A498 renal, above 100 µM in the assay with HCC-2998 colon and 85.1 µM with OVCAR-3 ovarian.
On to `O=C1/C(=C\c2cccs2)Oc2ccccc21`, for which the concentration for total growth inhibition (TGI) was above 100 µM with SK-OV-3 ovarian; above 100 µM in the assay with DU-145 prostate; above 100 µM in the assay on HCT-15 colon; above 100 µM in the assay with KM12 colon; above 100 µM in the assay on OVCAR-5 ovarian; 83.3 µM in the assay on UO-31 renal. The TGI in the assay on A498 renal, in the assay on HCC-2998 colon and in the assay with OVCAR-3 ovarian was above 100 µM each time.
In the case of `ClCCn1cnc2c(SCc3ccccc3)ncnc21`, the GI50 (usually the concentration that inhibits growth by half) was 8.3 µM in the assay on SK-OV-3 ovarian; 3.82 µM in the assay on DU-145 prostate; 0.334 µM with HCT-15 colon; 1.04 µM in the assay on KM12 colon; above 100 µM with OVCAR-5 ovarian; 8.77 µM in the assay on SF-539 CNS. The GI50 in the assay with UO-31 renal was 2.13 µM; in the assay with A498 renal it was 3.23 µM; in the assay with OVCAR-3 ovarian it was 7.45 µM. The TGI with SK-OV-3 ovarian, in the assay with DU-145 prostate, with HCT-15 colon, in the assay on KM12 colon, in the assay on OVCAR-5 ovarian and with SF-539 CNS was above 100 µM in each case. Besides, the TGI in the assay on UO-31 renal is 39.4 µM; with A498 renal, 74.6 µM; in the assay with OVCAR-3 ovarian, above 100 µM.
Consider `CCOC(=O)c1c2ccc(/C=C/C(=O)OC)ccc-2c(C(=O)OCC)c1N`, for which the TGI in the assay on SK-OV-3 ovarian, with HCT-15 colon, in the assay on KM12 colon, with OVCAR-5 ovarian, with SF-539 CNS and with UO-31 renal was above 100 µM each time. The figures for the TGI with A498 renal, in the assay with HCC-2998 colon and in the assay with OVCAR-3 ovarian were 49.4 µM, above 100 µM and above 100 µM, respectively.
Consider `OCC1OC(N2C=C(c3nc4ccccc4s3)C3C=CC=CC32)C(O)C1O` (stereo unspecified), for which the GI50 was 28.2 µM in the assay on SK-OV-3 ovarian; 8.2 µM in the assay with DU-145 prostate; 7.92 µM in the assay with HCT-15 colon; 8.95 µM in the assay with KM12 colon; 11.3 µM with OVCAR-5 ovarian; 8.08 µM with SF-539 CNS. The figures for the GI50 with UO-31 renal, in the assay on A498 renal and in the assay with OVCAR-3 ovarian were 17.7 µM, 7.91 µM and 13.4 µM, respectively. The total growth inhibition concentration (TGI) in the assay with SK-OV-3 ovarian was above 50 µM; in the assay with DU-145 prostate it was 25.8 µM; in the assay on HCT-15 colon it was 22 µM; in the assay on KM12 colon it was 23.4 µM; with OVCAR-5 ovarian it was 32.7 µM; in the assay on SF-539 CNS it was 17.8 µM. The TGI was above 50 µM in the assay on UO-31 renal, 17.7 µM with A498 renal and 36.6 µM in the assay with OVCAR-3 ovarian.
For the compound `O=C(O)c1[nH]c(C(=O)O)c(CC(F)(F)C(F)(F)C(F)(F)F)c1CC(F)(F)C(F)(F)C(F)(F)F`, the total growth inhibition concentration (TGI) in the assay on SK-OV-3 ovarian, with HCT-15 colon, in the assay on KM12 colon, in the assay on OVCAR-5 ovarian, in the assay with SF-539 CNS and in the assay on UO-31 renal was above 100 µM each time. Further, the TGI in the assay on A498 renal, with HCC-2998 colon and in the assay on OVCAR-3 ovarian was above 100 µM in each case.
With `CCc1cccc(C)c1NC(=O)CC1Sc2ccccc2NC1=O` (stereo unspecified), the TGI in the assay with SK-OV-3 ovarian, in the assay on HCT-15 colon, in the assay on KM12 colon, in the assay on OVCAR-5 ovarian, in the assay with SF-539 CNS and in the assay with UO-31 renal was above 100 µM each time. Besides, the total growth inhibition concentration (TGI) is 72.8 µM in the assay with A498 renal, 81.2 µM with HCC-2998 colon and above 100 µM with OVCAR-3 ovarian.
In the case of `O=c1oc2c3ccc4ccccc4c3n(Cc3nc4ccccc4[nH]3)c2c2ccccc12`, the TGI is above 100 µM in the assay with SK-OV-3 ovarian; above 100 µM in the assay on HCT-15 colon; above 100 µM in the assay on KM12 colon; above 100 µM in the assay with OVCAR-5 ovarian; above 26.2 µM in the assay with SF-539 CNS; above 100 µM in the assay with UO-31 renal. Further, the concentration for total growth inhibition (TGI) in the assay with A498 renal was above 100 µM; in the assay with HCC-2998 colon it was above 100 µM; in the assay with OVCAR-3 ovarian it was above 72.8 µM.
For `N#CC1C(N)=NNC1c1ccc(-c2ccc(-c3nc4ccccc4o3)cc2)o1` (stereo unspecified), the GI50 is 37.4 µM in the assay on SK-OV-3 ovarian; 15.3 µM in the assay with DU-145 prostate; 32.3 µM with HCT-15 colon; 24 µM in the assay with KM12 colon; 38.1 µM in the assay on OVCAR-5 ovarian; 30.1 µM in the assay on UO-31 renal. Further, in the assay with OVCAR-3 ovarian, the GI50 was 2.12 µM. Also, the TGI is above 100 µM with SK-OV-3 ovarian; 41.1 µM with DU-145 prostate; above 100 µM in the assay with HCT-15 colon; 93.8 µM in the assay on KM12 colon; above 100 µM in the assay with OVCAR-5 ovarian; above 100 µM in the assay on UO-31 renal. This compound registered a TGI with OVCAR-3 ovarian of 13.2 µM.

(Values after PubChem BioAssay (NCI).)
